PubChem BioAssay (NCI)
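Following 48 hours of exposure in 96-well plates, responses at five concentrations were used to interpolate endpoints linearly. Abbreviation: GI50, concentration required for 50% inhibition of growth. Definition used: TGI = concentration required for complete inhibition of growth.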

Columns and labels:
Assay in all cases: NCI-60 cell line screen, 48 h
SR leukemia = system: SR leukemia
RPMI-8226 leukemia = system: RPMI-8226 leukemia
K-562 leukemia = system: K-562 leukemia
LOX IMVI melanoma = system: LOX IMVI melanoma
NCI-H226 lung = system: NCI-H226 lung
RXF 393 renal = system: RXF 393 renal
786-0 renal = system: 786-0 renal
EKVX NSCLC = system: EKVX NSCLC
OVCAR-5 ovarian = system: OVCAR-5 ovarian
NCI-H522 lung = system: NCI-H522 lung

SMILES	TGI (SR leukemia)	TGI (RPMI-8226 leukemia)	TGI (K-562 leukemia)	TGI (LOX IMVI melanoma)	TGI (NCI-H226 lung)	TGI (RXF 393 renal)	TGI (786-0 renal)	TGI (EKVX NSCLC)	TGI (OVCAR-5 ovarian)	GI50 (OVCAR-5 ovarian)	GI50 (RPMI-8226 leukemia)	GI50 (K-562 leukemia)	GI50 (LOX IMVI melanoma)	GI50 (NCI-H522 lung)	TGI (NCI-H522 lung)	GI50 (NCI-H226 lung)	GI50 (RXF 393 renal)	GI50 (786-0 renal)	GI50 (EKVX NSCLC)	GI50 (SR leukemia)
CC(C)C1CN(C(=O)OCc2ccccc2)C2N1C(=O)C2(C)OCc1ccccc1 (stereo not drawn)	98 µM	66.6 µM	> 100 µM	> 100 µM	81 µM	> 100 µM	> 100 µM	> 100 µM	–	–	–	–	–	–	–	–	–	–	–	–
CN(C)CCNC(=O)Cc1ccccc1Nc1c(Cl)cccc1Cl	37.7 µM	38.2 µM	37.5 µM	26.8 µM	34.3 µM	31.9 µM	25.7 µM	43 µM	24.2 µM	–	–	–	–	–	–	–	–	–	–	–
O=C1c2cccc3cccc(c23)C(=O)N1CCN(CCO)CCO	44.9 µM	56.4 µM	90.6 µM	34.5 µM	40.1 µM	92.2 µM	> 100 µM	90.9 µM	49.1 µM	–	–	–	–	–	–	–	–	–	–	–
C=C(CN(C)Cc1ccccc1)c1ccc(NC(=O)c2ccc(C(=C)CN(C)Cc3ccccc3)cc2)cc1	–	53.6 µM	> 100 µM	> 100 µM	> 100 µM	99.3 µM	65.4 µM	> 100 µM	> 100 µM	> 100 µM	21.7 µM	45 µM	94.8 µM	> 100 µM	> 100 µM	34.6 µM	32 µM	25.6 µM	73.3 µM	–
COCOCCC#CCO	> 100 µM	> 100 µM	> 100 µM	> 100 µM	–	> 100 µM	> 100 µM	> 100 µM	> 100 µM	–	–	–	–	–	> 100 µM	–	–	–	–	–
CCC(C)(C)n1c(C)nc2c1C(=O)c1ccccc1C2=O	42.7 µM	–	> 100 µM	47.3 µM	> 100 µM	59.4 µM	> 100 µM	> 100 µM	–	–	–	–	–	–	87.5 µM	–	–	–	–	–
O=[N+]([O-])c1cccnc1N=Nc1c(O)[nH]c2ccccc12	–	79.2 µM	> 100 µM	25.7 µM	> 100 µM	–	52 µM	66 µM	49.2 µM	–	–	–	–	–	69.3 µM	–	–	–	–	–
Cc1cc(C)nc(NS(=O)(=O)c2ccc(Nc3c4ccccc4nc4c(C(=O)N5CCN(CCO)CC5)cccc34)cc2)n1	> 100 µM	–	> 100 µM	> 100 µM	> 100 µM	> 100 µM	> 100 µM	> 100 µM	> 100 µM	–	–	–	–	–	–	–	–	–	–	–
Cc1nc2c(N)ncnc2o1	–	–	> 100 µM	> 100 µM	> 100 µM	> 100 µM	> 100 µM	> 100 µM	> 100 µM	–	–	–	–	–	> 100 µM	–	–	–	–	–
Nc1c(C(=O)Nc2ccccn2)sc2nc3c(cc12)C(=O)CCC3	> 100 µM	> 100 µM	> 100 µM	> 100 µM	> 100 µM	8.88 µM	44.6 µM	–	> 100 µM	9.53 µM	3.24 µM	0.463 µM	4.18 µM	0.595 µM	> 100 µM	3.62 µM	1.11 µM	1.33 µM	–	2.75 µM
COc1cc(/C=C2\CCCCC3=C2N=C2SC(C)=CN2C3c2cc(OC)c(OC)c(OC)c2)cc(OC)c1OC (stereo not drawn)	–	> 100 µM	> 100 µM	> 100 µM	> 100 µM	> 100 µM	> 100 µM	–	> 100 µM	> 100 µM	0.013 µM	0.36 µM	> 100 µM	1.32 µM	> 100 µM	11 µM	3.06 µM	40.5 µM	–	–
O=C1C=C(c2c(O)ccc3ccccc23)c2cc(O)ccc2C1=O	42.9 µM	> 100 µM	> 100 µM	25.3 µM	44.1 µM	29.1 µM	33.9 µM	38.2 µM	35.5 µM	–	–	–	–	–	–	–	–	–	–	–
N#CC(I)CS(=O)(=O)c1ccccc1 (stereo not drawn)	–	41.4 µM	–	28.3 µM	37.8 µM	13 µM	33.2 µM	44.2 µM	33.6 µM	18.9 µM	17.5 µM	–	14.8 µM	1.34 µM	2.78 µM	17.9 µM	4.1 µM	19.1 µM	19.4 µM	–
Cc1nc2sccn2c1-c1nc2sccn2c1/C=C1/C(=O)Nc2ccccc21	–	–	> 100 µM	> 100 µM	> 100 µM	–	24.7 µM	55.3 µM	> 100 µM	12.9 µM	–	> 100 µM	3.01 µM	2.72 µM	11.1 µM	9.79 µM	–	1.79 µM	7.45 µM	–
O=C1C=C(Nc2ccc(Cl)cc2C(=O)c2ccccc2)c2ccccc2C1=O	–	–	> 100 µM	> 100 µM	> 100 µM	> 100 µM	> 100 µM	> 100 µM	> 100 µM	–	–	–	–	–	> 100 µM	–	–	–	–	–
CN1Nc2ccccc2CC1=O	–	> 100 µM	> 100 µM	> 100 µM	> 100 µM	–	> 100 µM	> 100 µM	> 100 µM	–	–	–	–	–	–	–	–	–	–	–
Cc1cc2c(cc1C)[n+](=O)cc(C(=O)C/C(=N/NC(=S)NN)C(=O)Nc1cccc(C(F)(F)F)c1)n2[O-]	> 100 µM	> 100 µM	> 100 µM	–	> 100 µM	–	> 100 µM	> 100 µM	> 100 µM	–	–	–	–	–	> 100 µM	–	–	–	–	–
CCN(Cc1c(F)cccc1OC)c1ccc(CO)c(Cl)c1	55.5 µM	23.1 µM	15.7 µM	33.1 µM	0.169 µM	25.3 µM	38.9 µM	–	0.242 µM	0.0371 µM	1.44 µM	0.623 µM	16.9 µM	13 µM	29.6 µM	0.0328 µM	10.9 µM	16.7 µM	–	18.3 µM
COc1ccc(NC(=O)CSc2nnc(-c3ccc(NC(C)=O)cc3)o2)cc1	–	–	> 100 µM	29.5 µM	57.8 µM	28.7 µM	39.1 µM	43.4 µM	> 100 µM	–	–	–	–	–	33.9 µM	–	–	–	–	–
CCCCCCCC(=O)OCC1OC(n2cc(F)c(=O)[nH]c2=O)C(N)C(OC(=O)CCCCCCC)C1O (stereo not drawn)	–	53.5 µM	–	32.5 µM	–	31.9 µM	33.5 µM	34 µM	–	–	–	–	–	–	28.9 µM	–	–	–	–	–
